We go through six compounds from patent publication US20120251551A1, “Substituted (Heteroarylmethyl)thiohydantoins” (BAYER PHARMA AKTIENGESELLSCHAFT, priority 2009, published 2012).

Data set [1] has as its target T1, wild-type human androgen receptor (Homo sapiens, UniProt P10275).
T1 construct: expressed in transfected cells
T1 sequence (P10275 1-920): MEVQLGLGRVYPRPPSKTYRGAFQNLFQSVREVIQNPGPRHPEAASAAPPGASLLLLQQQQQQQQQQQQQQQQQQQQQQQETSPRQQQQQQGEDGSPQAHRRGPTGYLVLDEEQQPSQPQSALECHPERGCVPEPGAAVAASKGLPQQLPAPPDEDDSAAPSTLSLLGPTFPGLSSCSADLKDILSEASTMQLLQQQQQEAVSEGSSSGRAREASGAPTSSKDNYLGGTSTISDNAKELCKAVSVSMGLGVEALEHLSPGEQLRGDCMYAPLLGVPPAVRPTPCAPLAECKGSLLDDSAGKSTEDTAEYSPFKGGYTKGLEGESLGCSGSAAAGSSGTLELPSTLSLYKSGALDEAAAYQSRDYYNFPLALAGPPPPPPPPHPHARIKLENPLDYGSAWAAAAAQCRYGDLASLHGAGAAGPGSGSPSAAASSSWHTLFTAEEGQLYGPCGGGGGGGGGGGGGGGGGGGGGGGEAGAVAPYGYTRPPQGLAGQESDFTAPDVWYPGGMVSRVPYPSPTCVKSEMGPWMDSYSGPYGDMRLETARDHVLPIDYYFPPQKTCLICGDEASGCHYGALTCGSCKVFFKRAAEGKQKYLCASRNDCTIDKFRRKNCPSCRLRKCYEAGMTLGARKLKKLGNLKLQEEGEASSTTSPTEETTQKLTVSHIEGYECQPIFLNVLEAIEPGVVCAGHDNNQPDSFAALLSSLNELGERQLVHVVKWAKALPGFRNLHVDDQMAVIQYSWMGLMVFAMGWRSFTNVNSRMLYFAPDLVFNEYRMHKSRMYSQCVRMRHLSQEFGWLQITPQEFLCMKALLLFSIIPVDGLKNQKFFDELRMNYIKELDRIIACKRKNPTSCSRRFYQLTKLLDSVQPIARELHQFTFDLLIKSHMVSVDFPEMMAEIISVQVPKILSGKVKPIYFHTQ
Kind of data set: Cell-based transactivation assay for wild-type human androgen receptor (PC-3 cells, MMTV-luciferase reporter). (In general: In a reporter assay the amount or activity of a reporter protein is the signal.)
Procedure: Cell-Based Transactivation Assay for Wild-Type Human Androgen Receptor
PC-3 cells (Kaighn et al., Invest. Urol. 17:16-23, 1979) stably transfected with the human androgen receptor (Swiss-Prot Acc. No. P10275, Entry Version 159, Sequence Version 2) and a reporter plasmid based on pGL4.14 (#E6691, Promega Corporation, Madison, Wis., USA) containing the MMTV promoter (Cato et al., EMBO J. 6:363-8, 1987) were used. They were grown in 5% charcoal-stripped medium and seeded at a concentration of 1000 cells per well in a 384-well plate. For determination of antagonistic activity, the plate additionally contained the compound to be tested at a concentration range varying from 5.12×10^−12 to 1×10^−5 M. The assay was performed in presence of 1×10^−10 R1881 (also known as methyltrienolone). After overnight incubation at 37° C. in a 5% CO2 atmosphere, 15 μl of Steady Glo Lysis and Detection reagent (Steady Glo Luciferase assay system E2550 from Promega Corporation. Madison, Wis., USA) were added. IC50 was calculated for anti-androgenic activity as well as percentage inhibition in presence of 2 μM compound in comparison to non-stimulated luciferase signal. Agonistic activity was determined using the same concentration range of compound in the absence of R1881 by measuring Luciferase activity as above. EC50 was calculated for androgenic activity. Assay/read plates were used (Polystyrol; 384, NV-white cell culture plates; Perkin Elmer).

Data set [2] addresses T2, human androgen receptor W741L mutant (Homo sapiens, UniProt P10275, W742L).
T2 construct: expressed in transfected cells; host or cells: PC-3 cells, transient transfection with a pSG5-derived plasmid
T2 sequence (P10275 1-920 W742L): T1 sequence (P10275 1-920) with W742L
Kind of data set: Cell-based transactivation assay for human androgen receptor mutant W741L.
Procedure: (§1) Cell-Based Transactivation Assay for Human Androgen Receptor Mutant W741L or W741C
(§2) PC-3 cells (Kaighn et al., Invest. Urol. 17:16-23, 1979) were grown in 5% charcoal-stripped medium and seeded at a concentration of 10000 cells per well in a 96-well plate. They were transiently transfected with a pSG5-derived plasmid (#216201 from Stratagene, La Jolla, Calif., USA) coding for the human androgen receptor W741L or W741C mutant Mara et al., Cancer Research, 63: 149-153, 2003) and an MMTV-Luciferase reporter plasmid based on pGL4.14 14 (#E6691, Promega Corporation, Madison, Wis., USA). The compound to be tested was added at a concentration range varying from 1×10^−9 to 1×10 M together with 1×10^−10 R1881. After 24 h incubation at 37° C. in a 5% CO2 atmosphere, 100 μl of Steady Glo Lysis and Detection reagent (Steady Glo Luciferase assay system E2550 from Promega Corporation. Madison, Wis., USA) were added. Antagonistic activity was determined by measuring Luciferase activity in a Victor 3 Luminometer (PerkinElmer, Waltham, Mass., USA) using the Steady Glo Luciferase Assay (E2550, Promega). IC50 values were calculated for anti-androgenic activity.

Data set [3] in a line: Determination of metabolic stability in vitro (calculation of hepatic in vivo blood clearance). The format is in vitro ADME. As to conditions: pH 7.4, human liver microsomes, calculated from half-life, read-out: calculated hepatic in vivo blood clearance (CL) (converted). The procedure: Determination of Metabolic Stability In Vitro (Including Calculation of Hepatic In Vivo Blood Clearance (CL) and of Maximal Oral Bioavailability (Fmax))
The metabolic stability of test compounds in vitro was determined by incubating them at 1 μM with a suspension of human liver microsomes in 100 mM phosphate buffer, pH7.4 (NaH2PO4×H2O+Na2HPO4×2H2O) at a protein concentration of 0.5 mg/ml and at 37° C. The reaction was activated by adding a co-factor mix containing 1.2 mg NADP, 3 IU glucose-6-phosphate dehydrogenase, 14.6 mg glucose-6-phosphate and 4.9 mg MgCl2 in phosphate buffer, pH 7.4. Organic solvent in the incubations was limited to <0.2% dimethylsulfoxide (DMSO) and <1% methanol. During incubation, the microsomal suspensions were continuously shaken and aliquots were taken at 2, 8, 16, 30, 45 and 60 min, to which equal volumes of cold methanol were immediately added. Samples were freezed at −20° C. over night, subsequently centrifuged for 15 minutes at 3000 rpm and the supernatant was analyzed with an Agilent 1200 HPLC-system with LCMS/MS detection.
The half-life of a test compound was determined from the concentration-time plot. From the half-life the intrinsic clearances were calculated. Together with the additional parameters liver blood flow, specific liver weight and microsomal protein content the hepatic in vivo blood clearance (CL) and the maximal oral bioavailability (Fmax) were calculated for the different species. The following parameter values were used: Liver blood flow—1.3 l/h/kg human; specific liver weight—21 g/kg human; microsomal protein content—40 mg/g.
With the described assay only phase-I metabolism of microsomes is reflected, e.g. typically oxidoreductive reactions by cytochrome P450 enzymes and flavin mono-oxygenases (FMO) and hydrolytic reactions by esterases (esters and amides).

Data set [4] deals with T3, human androgen receptor W741C mutant (Homo sapiens, UniProt P10275, W742C).
T3 construct: expressed in transfected cells; host or cells: PC-3 cells, transient transfection with a pSG5-derived plasmid
T3 sequence (P10275 1-920 W742C): T1 sequence (P10275 1-920) with W742C
The experiment in a line: Cell-based transactivation assay for human androgen receptor mutant W741C.
Procedure: as §1, §2

Another data set concerns LNCaP cells. Kind of data set: Proliferation assay with LNCaP cells. The format is cell-based. To be noted: Homo sapiens, 168 h, R1881 (1×10^−10) stimulated growth, day 7, read-out: inhibition IC50 (LNCaP). The procedure: Proliferation Assay with LNCaP Cells
LNCaP cells (Horoszewicz et al., in “Models for Prostate Cancer” (ed. G. P. Murphy), Alan R. Liss, New York 1981, p. 115-132; Horoszewicz et al., Cancer Res. 43:1809-1818, 1983) were seeded at 2000 cells/well in 96-well plates in RPMI (F1235, Biochrom AG, Berlin, Germany) without phenol red supplemented with 5% charcoal-stripped serum. After 3 days, the cells were treated with R1881) (1×10^−10) and compound (day 0). Cell number was determined by Alamar Blue (DAL1100, Invitrogen, Life Technologies, Lohne, Germany) staining (2.5 h) at day 0 and day 7. Fluorescence was determined in Victor3 (Excitation 530 nm; emission 590 nm). Stimulated growth was defined as the signal measured at day 7 for cells treated only with R1881. Basal level was defined as the signal measured at day 7 for cells grown without R1881.

The subject of the next data set is VCaP cells. The experiment in a line: Proliferation assay with VCaP cells. The format is cell-based. To be noted: Homo sapiens, 168 h, R1881 (1×10^−10) stimulated growth, day 7, read-out: Antiproliferative activity VCaP IC50. How it is done: Proliferation Assay with VCaP Cells
VCaP cells ((Korenchuk et al., In Vivo 15: 163-168, 2001)) were seeded at 16 000 cells/well in 96-well plates in DMEM (F0445, Biochrom AG, Berlin, Germany) with phenol red supplemented with 10% charcoal-stripped serum. After 1 day, the cells were treated with R1881 (1×10^−10) and compound (day 0). Cell number was determined by Alamar Blue (DAL1100, Invitrogen, Life Technologies, Lohne, Germany) staining (2.5 h) at day 0 and day 7. Fluorescence was determined in Victor3 (Excitation 530 nm; emission 590 nm). Stimulated growth was defined as the signal measured at day 7 for cells treated only with R1881. Basal level was defined as the signal measured at day 7 for cells grown without R1881.

Residue numbers refer to the chain shown, from its start.

Usually EC50 stands for the concentration giving half of the maximal effect. The low end stands for an effect from little substance, the high end for a need for much substance. The IC50 is the point on the concentration scale where inhibition reaches its midpoint. With `CC1(C)C(=O)N(c2ccc(C#N)c(C(F)(F)F)c2)C(=S)N1Cc1cnc(-n2ccnc2)nc1` [Example 17, 4-(3-{[2-(1H-Imidazol-1-yl)pyrimidin-5-yl]methyl}-4,4-dimethyl-5-oxo-2-thioxoimidazolidin-1-yl)-2-(trifluoromethyl)benzonitrile], the half-maximal effective concentration (EC50) in data set [1] is over 10000 nM. In data set [2], this compound yielded an IC50 of 20.6 nM. Also, the CLhep predicted at 1 µM in data set [3] is 1.5 mL/min/kg.
As to `Cc1cn(-c2ccc(CN3C(=S)N(c4ccc(C#N)c(C(F)(F)F)c4)C(=O)C3(C)C)cn2)cn1` [Example 19, 4-(4,4-Dimethyl-3-{[6-(4-methyl-1H-imidazol-1-yl)pyridin-3-yl]methyl}-5-oxo-2-thioxoimidazolidin-1-yl)-2-(trifluoromethyl)benzonitrile], the IC50 in data set [4] worked out at 52.9 nM; in the data set with LNCaP cells, 96 nM; in data set [2], 201 nM. This compound showed an EC50 in data set [1] of over 10000 nM.
The like results for `Cn1nccc1-c1ccc(CN2C(=S)N(c3ccc(C#N)c(C(F)(F)F)c3)C(=O)C2(C)C)cn1` [Example 20, 4-(4,4-Dimethyl-3-{[6-(1-methyl-1H-pyrazol-5-yl)pyridin-3-yl]methyl}-5-oxo-2-thioxoimidazolidin-1-yl)-2-(trifluoromethyl)benzonitrile] were, in that order, 99.9 nM, 46 nM, 233 nM and over 10000 nM.
As to `Cc1nc(Cl)cn1-c1ccc(CN2C(=S)N(c3ccc(C#N)c(C(F)(F)F)c3)C(=O)C2(C)C)cn1` [Example 21, 4-(3-{[6-(4-Chloro-2-methyl-1H-imidazol-1-yl)pyridin-3-yl]methyl}-4,4-dimethyl-5-oxo-2-thioxoimidazolidin-1-yl)-2-(trifluoromethyl)benzonitrile], the EC50 in data set [1] was over 10000 nM. This compound had an IC50 in data set [2] of 296 nM. For the same compound, in data set [3], the CLhep predicted at 1 µM is 6.67 mL/min/kg.
For the compound `CC1(C)C(=O)N(c2ccc(C#N)c(C(F)(F)F)c2)C(=S)N1Cc1ccc(-n2cnc(C(F)(F)F)c2)nc1` [Example 23, 4-[4,4-Dimethyl-5-oxo-2-thioxo-3-({6-[4-(trifluoromethyl)-1H-imidazol-1-yl]pyridin-3-yl}methyl)imidazolidin-1-yl]-2-(trifluoromethyl)benzonitrile], the concentration for half-maximal inhibition (IC50) was 148 nM in data set [4], 160 nM in the data set with LNCaP cells, 83 nM in data set [2] and 340 nM in the data set on VCaP cells. Besides, in data set [1], the EC50 was over 10000 nM.
The compound `CC1(C)C(=O)N(c2ccc(C#N)c(C(F)(F)F)c2)C(=S)N1Cc1ccc(-c2cccs2)nc1` [Example 24, 4-(4,4-Dimethyl-5-oxo-3-{[6-(thien-2-yl)pyridin-3-yl]methyl}-2-thioxoimidazolidin-1-yl)-2-(trifluoromethyl)benzonitrile] gave an EC50 in data set [1] of over 10000 nM. In data set [2], the IC50 worked out at 202 nM. Besides, the CLhep predicted at 1 µM in data set [3] is 6.67 mL/min/kg.
